Results on 4 compounds are retold here after patent US20210171589A1, “TRUNCATED CARTILAGE-HOMING PEPTIDES AND PEPTIDE COMPLEXES AND METHODS OF USE THEREOF” (BLAZE BIOSCIENCE, INC., priority 2018, published 2021).

Bridge positions count the residues as written; N and C are the ends. Peptide text beside a SMILES is read from it.

One series has as its system cartilage. Kind of series: Peptide homing with kidney ligation (autoradiography). Type of series: in vivo, Female Harlan athymic nude mice. To be noted: mice with ligated kidneys, 50-100 nmol via tail vein injection. Here is the method: This example describes a dosing scheme for administering peptides to mice in conjunction with kidney ligation. Different dosages of the peptides of SEQ ID NO:149 and SEQ ID NO:150 were administered to Female Harlan athymic nude mice, weighing 20 g-25 g, via tail vein injection (n=2 mice per peptide). The experiment was done in duplicates. The kidneys were ligated to prevent renal filtration of the peptides. Each peptide was radiolabeled by methylating lysines and the N-terminus, so the actual binding agent may contain methyl or dimethyl lysine(s) and a methylated or dimethylated amino terminus.
A target dosage of 50-100 nmol of each peptide carrying 10-25 uCi of ^14C was administered to Female Harlan athymic nude mice while anesthetized. Each peptide was allowed to freely circulate within the animal before the animals were euthanized and sectioned.
This example illustrates peptide homing to cartilage of mice with kidneys that were ligated prior to peptide administration. At the end of the dosing period in EXAMPLE 4, mice were frozen in a hexane/dry ice bath and then frozen in a block of carboxymethylcellulose. […]

In another series the test system is cartilage and kidneys. The experiment in a line: Peptide homing with intact kidneys (autoradiography). The class given is in vivo, Female Harlan athymic nude mice. Here is the method: Additionally, the peptide can be retained in cartilage for hours after treatment. The SEQ ID NO: 150 peptide was radiolabeled as in EXAMPLE 4 and 100 nmol of peptide was injected into a mouse with intact kidneys.
This example describes a dosing scheme for administering peptides to mice without kidney ligation. The peptide administered had the sequence of SEQ ID NO: 150. The peptide was radiolabeled by methylating lysines and the N-terminus, so the actual binding agent may contain methyl or dimethyl lysine(s) and a methylated or dimethylated amino terminus.
A target dosage of 100 nmol of each peptide carrying 10-25 μCi of ^14C was administered to Female Harlan athymic nude mice by a tail vein injection. Each peptide was allowed to freely circulate within the animal for either 4 hours or 24 hours before the animals were euthanized and sectioned.
This example illustrates peptide homing to cartilage in animals with intact kidneys. At the end of the 4 hour or 24 hour dosing periods in EXAMPLE 6, mice were frozen in a hexane/dry ice bath and then frozen in a block of carboxymethylcellulose. […]

Series [1] in a line: Stability testing of peptide in solution, RP-HPLC. The class given is physicochemical. The note with it: 5 mg/mL in 50 mM Tris, 5% Mannitol, pH 7.6. Here is the method:
This example describes stability testing of peptides of the present disclosure. A 5 mg/mL solution of SEQ ID NO: 149 (also disclosed as SEQ ID NO: 46; non-GS version of SEQ ID NO: 149/SEQ ID NO: 46 are shown in SEQ ID NO: 128 and SEQ ID NO: 205) was prepared in 50 mM Tris, 5% Mannitol, pH 7.6. The stability of SEQ ID NO: 149 in solution was assessed by stressing the sample at 40° C. for 10 days and analyzed by RP-HPLC side-by-side with an unstressed sample prepared under the same conditions and stored at −20° C. […] This change was predominantly the result of an increase in area of one predominant impurity peak eluting after the main peak in the sample that was exposed to the higher temperature. No other impurities present in the initial sample increased substantially and no substantial new impurities were seen.

Series [2] concerns cartilage (intervertebral discs, knee joints). The experiment in a line: Whole body autoradiography of radiolabeled cartilage homing peptides. The class given is in vivo, Female Harlan athymic nude mice. The note with it: for Signal of folded knotted peptide as compared to the linearized peptide of SEQ ID NO: 218: TABLE 8 versus TABLE 9; for Homing of radiolabeled peptide to cartilage: mice, 100 nmol via tail vein injection, 5 minutes to 48 hours. Here is the method:
This example illustrates peptide homing to cartilage mice 5 minutes to 48 hours after administration of a radiolabeled peptide. Signal from the radiolabeled peptides was found in all types of cartilage at each time point examined. Each peptide was radiolabeled by methylating […] as described in EXAMPLE 2. As such, the peptide may contain methyl or dimethyl lysines and a methylated or dimethlyated amino terminus. A dose of 100 nmol radiolabeled peptide was administered via tail vein injection in Female Harlan athymic nude mice, weighing 20-25 g. The experiment was done in duplicate (n=2 animals per group). Each radiolabeled peptide was allowed to freely circulate within the animal for the described time period before the animals were euthanized and sectioned.
Whole body autoradiography (WBA) sagittal sectioning was performed as follows. At the end of the dosing period, mice were frozen in a hexane/dry ice bath and then embedded in a frozen block of carboxymethylcellulose. […] Sections were allowed to dessicate in a freezer prior to imaging. For the autoradiography imaging, tape mounted thin sections were freeze dried and radioactive samples were exposed to phosphoimager plates. These plates were developed and the signal (densitometry) from each organ was normalized to the signal found in the cardiac blood of each animal. A signal in tissue darker than the signal expected from blood in that tissue indicates accumulation in a region, tissue, structure, or cell.

The test system is the same in series [3]. The series is described as above. The class given is in vivo, Female Harlan athymic nude mice.

With `CC[C@H](C)[C@@H]1NC(=O)[C@@H]2CSSC[C@H](NC(=O)[C@H](CCCCN)NC(=O)[C@@H](NC(=O)[C@H](CC(N)=O)NC(=O)[C@@H](NC(=O)[C@@H]3CCCN3C(=O)[C@@H](NC(=O)CNC(=O)[C@H](CO)NC(=O)CN)C(C)C)[C@@H](C)CC)C(C)C)C(=O)N[C@@H](CCCNC(=N)N)C(=O)NCC(=O)N[C@@H](CO)C(=O)N[C@@H](CCCNC(=N)N)C(=O)N[C@@H](CC(=O)O)C(=O)N[C@H]3CSSC[C@H](NC(=O)[C@H](CCCCN)NC(=O)[C@H](CO)NC(=O)[C@H](CC(N)=O)NC1=O)C(=O)N[C@@H](Cc1c[nH]cn1)C(=O)N[C@H](C(=O)N[C@H](C(=O)N1CCC[C@H]1C(=O)O)[C@@H](C)O)CSSC[C@H](NC(=O)[C@@H]1CCCN1C(=O)[C@H](CC(=O)O)NC(=O)[C@H](CC(C)C)NC3=O)C(=O)N[C@@H](CCCCN)C(=O)N[C@@H](CCCCN)C(=O)N[C@@H](C)C(=O)NCC(=O)N[C@@H](CCSC)C(=O)N[C@@H](CCCNC(=N)N)C(=O)N[C@@H](Cc1ccccc1)C(=O)NCC(=O)N[C@@H](CCCCN)C(=O)N2` [SEQ ID NO: 150] (H-GSGVPINVKCRGSRDCLDPCKKAGMRFGKCINSKCHCTP-OH; disulfide 10-30, 16-35, 20-37; N-terminus and C-terminus assumed), the “Peptide distribution (14C signal)” value with cartilage was “distribution in joint and other cartilage”; in the series with cartilage and kidneys (mice with intact kidneys, 100 nmol via tail vein injection, 4 hours or 24 hours), “distribution in joint and other cartilage as well as kidneys”. For the same compound, the “Retention and tissue distribution in cartilage” value in the series on cartilage and kidneys (mouse with intact kidneys, 100 nmol, 24 hours after administration) was “retention of and the tissue distribution in the cartilage”.
As for “GSGVPINVRCRGSRDCLDPCRRAGMRFGRCINSRCHCTP [SEQ ID NO: 149]”, the “Purity by RP-HPLC of stressed sample” value in series [1] (40° C. for 10 days) amounted to 93.5%. Besides, the “Visual inspection of the samples (solubility, precipitation)” value in series [1] (40° C. for 10 days versus −20° C.) is reported as “no change in solubility”. Also, the “Initial purity by RP-HPLC (non-stressed sample)” value in series [1] (stored at −20° C.) was determined as 96.4%. In addition, the results for the “Signal of folded knotted peptide as compared to the linearized peptide of SEQ ID NO: 218” value in series [2] (at 3 hours) and in series [2] (at 24 hours) were approximately 20 fold and approximately 50 fold, respectively. Besides, the “Signal of radiolabeled peptide in IVD as a Percentage of Blood” value (“Signal … in IVD as a Percentage of Blood” for short) in series [2] (intervertebral discs, 0.08 hours after 100 nmol via tail vein injection) is recorded as 164 Percentage of Blood; in series [2] (intervertebral discs, 0.5 hours after 100 nmol via tail vein injection) it was 369 Percentage of Blood; in series [2] (intervertebral discs, 1 hour after 100 nmol via tail vein injection), 961 Percentage of Blood; in series [2] (intervertebral discs, 3 hours after 100 nmol via tail vein injection), 3213 Percentage of Blood; in series [2] (intervertebral discs, 8 hours after 100 nmol via tail vein injection) it was 3777 Percentage of Blood; in series [2] (intervertebral discs, 24 hours after 100 nmol via tail vein injection) it was 5391 Percentage of Blood. Also, in series [2] (intervertebral discs, 48 hours after 100 nmol via tail vein injection), the “Signal … in IVD as a Percentage of Blood” value is reported as 3320 Percentage of Blood. The “Signal of radiolabeled peptide in Knee Joints as a Percentage of Blood” value in series [2] (0.08 hours after 100 nmol via tail vein injection) is 404 Percentage of Blood; in series [2] (0.5 hours after 100 nmol via tail vein injection), 510 Percentage of Blood; in series [2] (1 hour after 100 nmol via tail vein injection) it was 1114 Percentage of Blood; in series [2] (3 hours after 100 nmol via tail vein injection) it was 4059 Percentage of Blood; in series [2] (8 hours after 100 nmol via tail vein injection), 4990 Percentage of Blood; in series [2] (24 hours after 100 nmol via tail vein injection), 2137 Percentage of Blood. Besides, in series [2] (48 hours after 100 nmol via tail vein injection), the “Signal of radiolabeled peptide in Knee Joints as a Percentage of Blood” value is given as 843 Percentage of Blood. Moreover, the “Homing of radiolabeled peptide to cartilage” value in series [2] is “homed to and accumulated in the cartilage”.
As for “GSGVPINVRSRGSRDSLDPSRRAGMRFGRSINSRSHSTP [SEQ ID NO: 218, reference compound]”, the “Signal … in IVD as a Percentage of Blood” value in series [2] (3 hr, Intact Kidneys) was 177 Percentage of Blood; in series [3] (3 hr, Ligated Kidneys), 117 Percentage of Blood; in series [3] (24 hr, Intact Kidneys), 104 Percentage of Blood. Besides, the “Homing of radiolabeled peptide to cartilage” value in series [2] was “homed to cartilage to a much lesser extent”.
Take “GSKCRGSRDCLDPCKKAGMRFGKCINSKCHCTP [SEQ ID NO: 27]”: the “Peptide distribution (14C signal)” value with cartilage is “distribution in nasal, spinal, tracheal, and other cartilage”.
